Results reported in patent publication US20220296595A1, “CDK INHIBITORS” (QILU REGOR THERAPEUTICS INC., priority 2019, published 2022).
Where two headings read alike, the source gives them in different places.

Experiments:
CDK4/CyclinD1 = molecular target: T1, CDK4/CyclinD1 (Homo sapiens, UniProt P11802); test: Assay for inhibition of CDK4/CyclinD1 (Caliper microfluidic kinase assay); assay type: biochemical
T1 construct: purchased Thermofisher PR8064A
How it was run: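 Caliper microfluidic mobility-shift assay tracking phosphorylation of 1 μM FL-34 peptide by 1 nM CDK4/CyclinD1 with 200 μM ATP in HEPES pH 7.5 buffer with 10 mM MgCl2. Reaction ran 3 h at room temperature, was stopped with EDTA, and IC50 came from a 4-parameter sigmoidal fit.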

CDK6/CyclinD3 = molecular target: T2, CDK6/CyclinD3 (Homo sapiens, UniProt Q00534); test: Assay for inhibition of CDK6/CyclinD3 (Caliper microfluidic kinase assay); assay type: biochemical
T2 construct: purchased Carna 04-107
How it was run: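 Caliper mobility-shift readout of FAM-labelled peptide (FL-34, 1 μM) phosphorylation by 2 nM CDK6/CyclinD3 at 300 μM ATP in HEPES pH 7.5 buffer with MgCl2, DTT; 3 h at room temperature, EDTA stop. IC50 from 4-parameter sigmoidal fit.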

CDK2/CyclinE1 = molecular target: T3, CDK2/CyclinE1 (Homo sapiens, UniProt P24941); test: Assay for inhibition of CDK2/CyclinE1 (Caliper microfluidic kinase assay); assay type: biochemical; conditions: read-out: CDK2 IC50
T3 construct: purchased SignalChem C29-18G
How it was run: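 Caliper microfluidic mobility-shift assay: 5 nM CDK2/CyclinE1, 100 μM ATP, 5 μM FL-18 peptide (5-FAM-QSPKKG-NH2) in pH 7.5 HEPES buffer with MgCl2, DTT, BSA, Triton X-100. Incubated 3 hours at room temperature, EDTA-stopped; IC50 from 4-parameter sigmoidal fit.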

T47D breast cancer cells = test: Anti-proliferation assay in T47D cell (Cyquant, day 6); assay type: cell-based, human; conditions: read-out: T47D IC50
How it was run: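 Cells were grown in RPMI 1640 with 10% FBS at 37 °C and dosed the day after plating at ten concentrations, 10 μM to 0.51 nM in 3-fold steps. CyQuant fluorescence (ex 485/em 535 nm) was read on day 6. IC50 was fitted from baseline-subtracted viability curves, with the baseline read after overnight culture.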

[1] = test system: phosphorylation of Retinoblastoma Protein (pRb Ser807/811 or Ser780) in T47D cells; test: Inhibition of phosphorylation of retinoblastoma protein (pRb) in T47D cell (ELISA); assay type: cell-based, human
Method: T47D breast cancer cells from American Type Culture Collection (ATCC, HTB-133) were plated at 40,000 cells/well in 96-well plates, and were incubated in RPMI 1640 medium (Gibco, 31800105) with 10% Fetal Bovine Serum (FBS, Biowest, FB-1058). Cells were then allowed to adhere overnight at 37° C., 5% CO2. The following day, compounds were titrated in a 3-fold dilution scheme, and the highest compound concentration tested was […]. After 24 hours incubation with compounds, cells were lysed in ice-cold lysis buffer containing phosphatase inhibitor cocktail and 1 mM PMSF. Cell lysates (50 μL/well) were then transferred to ELISA plates (pRb Ser807/811 ELISA kit, Cell Signaling, 13152 or pRb Ser780 ELISA kit, Cell Signaling, 13016)). Plates were incubated overnight at 4° C., with constant slow speed shaking. After incubation, plates were washed following manufacturer's recommendations, and then 100 μL reconstituted detection antibody was added to each well and incubated for 1 hour at 37° C. After incubation, plates were washed, and then 100 μL reconstituted HRP-linked secondary antibody was added to each well and incubated for 30 mins at 37° C. After incubation, plates were washed. Then, 100 μL TMB substrate was added to each well and incubated for 10 min at 37° C. or 30 min at 25° C. Finally, 100 μL of STOP solution was added to each well and mixed gently for a few seconds. Plates were read on the Envision plate reader (PerkinElmer, 2104-0010) using the 96-well […] mode. IC50 values were calculated using 4 parameter sigmoidal dose-response model of Xlfit5/GraphPad Prism 5 software.

[2] = Homo sapiens, T47D, anti-proliferation, T47D cells
[3] = Homo sapiens, T47D, read-out: Phospho T47D Ser807 IC50, pRb Ser807 phosphorylation, T47D cells

T1 sequence (P11802 whole entry): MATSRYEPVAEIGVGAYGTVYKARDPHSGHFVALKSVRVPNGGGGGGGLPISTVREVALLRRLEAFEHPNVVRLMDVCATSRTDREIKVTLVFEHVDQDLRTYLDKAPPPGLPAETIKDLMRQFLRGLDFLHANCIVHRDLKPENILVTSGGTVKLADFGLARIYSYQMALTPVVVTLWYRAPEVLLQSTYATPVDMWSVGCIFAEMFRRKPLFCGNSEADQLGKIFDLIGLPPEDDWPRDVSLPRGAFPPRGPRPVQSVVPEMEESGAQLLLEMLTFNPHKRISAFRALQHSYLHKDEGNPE
T1 sequence (P24385 whole entry partner): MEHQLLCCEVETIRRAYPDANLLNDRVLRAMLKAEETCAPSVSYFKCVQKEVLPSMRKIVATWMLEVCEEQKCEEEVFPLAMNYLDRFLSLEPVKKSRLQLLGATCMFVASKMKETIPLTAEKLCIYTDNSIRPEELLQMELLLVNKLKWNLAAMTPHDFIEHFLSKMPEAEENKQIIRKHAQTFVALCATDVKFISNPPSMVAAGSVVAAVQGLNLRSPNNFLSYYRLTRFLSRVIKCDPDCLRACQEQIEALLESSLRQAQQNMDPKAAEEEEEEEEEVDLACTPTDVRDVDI
T2 sequence (Q00534 whole entry): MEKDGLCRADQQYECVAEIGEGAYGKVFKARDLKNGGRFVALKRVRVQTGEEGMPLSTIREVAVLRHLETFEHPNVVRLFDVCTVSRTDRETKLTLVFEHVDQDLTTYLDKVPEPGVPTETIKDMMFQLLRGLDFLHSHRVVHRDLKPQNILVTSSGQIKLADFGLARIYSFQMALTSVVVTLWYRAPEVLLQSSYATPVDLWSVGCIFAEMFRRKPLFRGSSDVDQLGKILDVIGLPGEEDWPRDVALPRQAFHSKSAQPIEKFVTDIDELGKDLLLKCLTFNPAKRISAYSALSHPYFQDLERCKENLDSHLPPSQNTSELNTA
T2 sequence (P30281 whole entry partner): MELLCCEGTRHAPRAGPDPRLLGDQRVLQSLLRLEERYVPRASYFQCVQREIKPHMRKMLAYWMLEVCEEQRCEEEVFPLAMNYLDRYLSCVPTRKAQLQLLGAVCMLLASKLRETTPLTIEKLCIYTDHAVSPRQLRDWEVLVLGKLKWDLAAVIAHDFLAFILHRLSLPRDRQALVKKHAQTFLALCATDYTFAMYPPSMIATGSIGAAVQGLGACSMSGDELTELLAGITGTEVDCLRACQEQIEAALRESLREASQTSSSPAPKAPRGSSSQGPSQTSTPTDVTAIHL

SMILES	IC50 (CDK4/CyclinD1; CDK4/CyclinD1, 200 μM ATP)	IC50 (CDK6/CyclinD3; CDK6/CyclinD3, 300 μM ATP)	IC50 (CDK2/CyclinE1; CDK2/CyclinE1, 100 μM ATP)	IC50 (T47D breast cancer cells; [2])	IC50 [1, 3]	IC50 (T47D breast cancer cells; anti-proliferation, T47D cells)	IC50 ([1]; read-out: Phospho T47D Ser807 IC50, pRb Ser807 phosphorylation, T47D cells)	IC50 (T47D breast cancer cells; Homo sapiens, T47D)	IC50 ([1]; Homo sapiens, T47D, read-out: Phospho T47D Ser807 IC50)	IC50 (CDK4/CyclinD1; CDK4/CyclinD1)	IC50 (CDK6/CyclinD3; CDK6/CyclinD3)	IC50 (CDK2/CyclinE1; CDK2/CyclinE1)
COc1nc(-c2nc(Nc3ccc(N4CCC(N(C)C)CC4=O)cn3)ncc2F)cc2c1nc(C)n2C(C)C (single isomer, unassigned) [Example 62-1, 4-(dimethylamino)-1-[6-[[5-fluoro-4-(1-isopropyl-4-methoxy-2-methyl-imidazo[4,5-c]pyridin-6-yl)pyrimidin-2-yl]amino]-3-pyridyl]piperidin-2-one]	< 10 nM	10 to 100 nM	> 1000 nM	100 to 500 nM	100 to 500 nM	–	–	–	–	–	–	–
COc1nc(-c2nc(Nc3ccc(N4CCC(N(C)C)CC4=O)cn3)ncc2F)cc2c1nc(C)n2C(C)C (single isomer, unassigned) [Example 62-2, 4-(dimethylamino)-1-[6-[[5-fluoro-4-(1-isopropyl-4-methoxy-2-methyl-imidazo[4,5-c]pyridin-6-yl)pyrimidin-2-yl]amino]-3-pyridyl]piperidin-2-one]	< 10 nM	10 to 100 nM	> 1000 nM	–	–	< 100 nM	< 100 nM	–	–	–	–	–
CNC1CCN(c2ccc(Nc3nccc(-c4ccn5ncc(C(C)C)c5c4)n3)nc2)C(=O)C1 (single isomer, unassigned) [Synthetic Example 205, 1-[6-[[4-(3-isopropylpyrazolo[1,5-a]pyridin-5-yl)pyrimidin-2-yl]amino]-3-pyridyl]-4-(methylamino)piperidin-2-one]	< 10 nM	< 10 nM	< 10 nM	< 100 nM	< 100 nM	–	–	–	–	–	–	–
CC(C)c1cnn2ccc(-c3ccnc(Nc4ccc(N5CCCNC5=O)cn4)n3)cc12 [Synthetic Example 1]	< 10 nM	10 to 100 nM	100 to 1000 nM	< 100 nM	< 100 nM	–	–	–	–	–	–	–
CC(C)c1cnn2ccc(-c3nc(Nc4ccc(N5CCNCC5=O)cn4)ncc3F)cc12 [Synthetic Example 29]	< 10 nM	10 to 100 nM	10 to 100 nM	< 100 nM	< 100 nM	–	–	–	–	–	–	–
CC(C)c1cnn2ccc(-c3ccnc(Nc4ccc(N5CC(N(C)C)CC5=O)cn4)n3)cc12 (stereo not shown) [Synthetic Example 39]	< 10 nM	10 to 100 nM	10 to 100 nM	< 100 nM	< 100 nM	–	–	–	–	–	–	–
CC(C)c1cnn2ccc(-c3ccnc(Nc4ccc(N5CCN(C6CNC6)CC5=O)cn4)n3)cc12 [Synthetic Example 40]	< 10 nM	10 to 100 nM	10 to 100 nM	–	–	–	–	< 100 nM	< 100 nM	–	–	–
CC(C)c1cnn2ccc(-c3nc(Nc4ccc(N5CCN(C6COC6)CCC5=O)cn4)ncc3F)cc12 [Synthetic Example 43]	< 10 nM	10 to 100 nM	10 to 100 nM	< 100 nM	< 100 nM	–	–	–	–	–	–	–
CC(C)n1cnc2c1CN(c1ccnc(Nc3ccc(N4CCOCC4=O)cn3)n1)CC2 [Synthetic Example 57]	< 10 nM	100 to 1000 nM	10 to 100 nM	100 to 500 nM	< 100 nM	–	–	–	–	–	–	–
CC1(C)COc2c(F)cc(-c3ccnc(Nc4ccc(N5CCNCC5=O)cn4)n3)cc21 [Synthetic Example 59]	< 10 nM	10 to 100 nM	10 to 100 nM	< 100 nM	< 100 nM	–	–	–	–	–	–	–
CC(C)n1cnc2c(F)nc(-c3ccnc(Nc4ccc(N5CCOCC5=O)cn4)n3)cc21 [Synthetic Example 61]	< 10 nM	10 to 100 nM	10 to 100 nM	< 100 nM	< 100 nM	–	–	–	–	–	–	–
COc1nc(-c2nc(Nc3ccc(N4CCC(N(C)C)CC4=O)cn3)ncc2F)cc2c1nc(C)n2C(C)C (stereo not shown) [Synthetic Example 62, 4-(dimethylamino)-1-[6-[[5-fluoro-4-(1-isopropyl-4-methoxy-2-methyl-imidazo[4,5-c]pyridin-6-yl)pyrimidin-2-yl]amino]-3-pyridyl]piperidin-2-one]	< 10 nM	10 to 100 nM	> 1000 nM	< 100 nM	< 100 nM	–	–	–	–	–	–	–
COc1nc(-c2nc(Nc3ccc(N4CCNCC4)cn3)ncc2F)cc2c1nc(C)n2C(C)C [Synthetic Example 106]	< 10 nM	10 to 100 nM	> 1000 nM	100 to 500 nM	< 100 nM	–	–	–	–	–	–	–
COc1nc(-c2nc(Nc3ccc(N4CCN(S(C)(=O)=O)CC4=O)cn3)ncc2F)cc2c1nc(C)n2C(C)C [Synthetic Example 127]	< 10 nM	10 to 100 nM	100 to 1000 nM	100 to 500 nM	100 to 500 nM	–	–	–	–	–	–	–
CCN1CCN(c2ccc(Nc3ncc(F)c(-c4cc5c(nc(C)n5C(C)C)c(OC)n4)n3)nc2)C(=O)C1 [Synthetic Example 128]	< 10 nM	10 to 100 nM	> 1000 nM	–	< 100 nM	–	–	100 to 500 nM	–	–	–	–
CN(C)C1CCN(c2ccc(Nc3nccc(-c4ccn5ncc(C(C)(C)C)c5c4)n3)nc2)C(=O)C1 (stereo not shown) [Synthetic Example 175]	< 10 nM	< 10 nM	< 10 nM	< 100 nM	< 100 nM	–	–	–	–	–	–	–
CNC1CCN(c2ccc(Nc3nccc(-c4ccn5ncc(C(C)C)c5c4)n3)nc2)C(=O)C1 (stereo not shown) [Synthetic Example 204, 1-[6-[[4-(3-isopropylpyrazolo[1,5-a]pyridin-5-yl)pyrimidin-2-yl]amino]-3-pyridyl]-4-(methylamino)piperidin-2-one]	< 10 nM	< 10 nM	< 10 nM	< 100 nM	< 100 nM	–	–	–	–	–	–	–
CCN1CCN(Cc2ccc(Nc3ncc(F)c(-c4cc(C)n5ncc(C(C)C)c5c4)n3)nc2)CC1 [compound 5]	10 to 100 nM	100 to 1000 nM	–	> 1000 nM	> 1000 nM	–	–	–	–	–	–	–
CCN1CCN(c2ccc(Nc3nccc(-c4cc5c(ncn5C(C)C)c(F)n4)n3)nc2)CC1 [compound 289]	< 10 nM	< 10 nM	100 to 1000 nM	–	< 100 nM	–	–	–	–	–	–	–
COc1nc(-c2ccnc(Nc3ccc(N4CCC(C)(N)CC4=O)cn3)n2)cc2c1ncn2C(C)C (stereo not shown) [compound 313]	–	–	–	–	< 100 nM	–	–	–	–	10 to 100 nM	< 10 nM	100 to 1000 nM
